Results: PubChem BioAssay (NCI)
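Step 1: Grow cells in 96-well plates. Step 2: Expose to compound for 48 hours at 5 concentrations. Step 3: Interpolate endpoints linearly; if unreached, use highest concentration. TGI: concentration producing complete growth inhibition.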

How the values were obtained:
Experiment in all cases: NCI tumour cell line growth inhibition, 48 h
786-0 renal = tested on: 786-0 renal
HOP-62 NSCLC = tested on: HOP-62 NSCLC
SK-MEL-5 melanoma = tested on: SK-MEL-5 melanoma
SK-MEL-28 melanoma = tested on: SK-MEL-28 melanoma
IGROV1 ovarian = tested on: IGROV1 ovarian
KM12 colon = tested on: KM12 colon
NCI-H226 lung = tested on: NCI-H226 lung
MDA-MB-435 = tested on: MDA-MB-435
MDA-N = tested on: MDA-N
EKVX NSCLC = tested on: EKVX NSCLC
NCI-H23 lung = tested on: NCI-H23 lung
TK-10 renal = tested on: TK-10 renal
T-47D breast = tested on: T-47D breast
PC-3 prostate = tested on: PC-3 prostate
A549 NSCLC = tested on: A549 NSCLC
COLO 205 colon = tested on: COLO 205 colon
SF-268 CNS = tested on: SF-268 CNS
A498 renal = tested on: A498 renal
SW-620 colon = tested on: SW-620 colon
SNB-75 CNS = tested on: SNB-75 CNS
UO-31 renal = tested on: UO-31 renal
HS 578T breast = tested on: HS 578T breast
OVCAR-5 ovarian = tested on: OVCAR-5 ovarian
NCI-H522 lung = tested on: NCI-H522 lung
NCI-H460 lung = tested on: NCI-H460 lung
NCI/ADR-RES ovarian = tested on: NCI/ADR-RES ovarian
CCRF-CEM leukemia = tested on: CCRF-CEM leukemia
OVCAR-8 ovarian = tested on: OVCAR-8 ovarian
MALME-3M melanoma = tested on: MALME-3M melanoma
UACC-257 melanoma = tested on: UACC-257 melanoma
SK-OV-3 ovarian = tested on: SK-OV-3 ovarian
MDA-MB-231 breast = tested on: MDA-MB-231 breast
HOP-92 NSCLC = tested on: HOP-92 NSCLC
LOX IMVI melanoma = tested on: LOX IMVI melanoma
CAKI-1 renal = tested on: CAKI-1 renal
SNB-19 CNS = tested on: SNB-19 CNS
U251 CNS = tested on: U251 CNS
RPMI-8226 leukemia = tested on: RPMI-8226 leukemia
K-562 leukemia = tested on: K-562 leukemia
ACHN renal = tested on: ACHN renal
RXF 393 renal = tested on: RXF 393 renal
SF-295 CNS = tested on: SF-295 CNS
OVCAR-3 ovarian = tested on: OVCAR-3 ovarian
OVCAR-4 ovarian = tested on: OVCAR-4 ovarian
SR leukemia = tested on: SR leukemia
MCF7 breast = tested on: MCF7 breast
DU-145 prostate = tested on: DU-145 prostate
MOLT-4 leukemia = tested on: MOLT-4 leukemia
HCT-116 colon = tested on: HCT-116 colon
UACC-62 melanoma = tested on: UACC-62 melanoma
HCT-15 colon = tested on: HCT-15 colon
HCC-2998 colon = tested on: HCC-2998 colon
SF-539 CNS = tested on: SF-539 CNS
BT-549 breast = tested on: BT-549 breast
HT29 colon = tested on: HT29 colon
SK-MEL-2 melanoma = tested on: SK-MEL-2 melanoma
SN12C renal = tested on: SN12C renal
M14 melanoma = tested on: M14 melanoma

`CC12c3c4cccc3Oc3cc(N)cc(c31)Oc1cc(N)cc(c12)O4` was tested, and the TGI (786-0 renal) was 8.72 µM, the TGI (HOP-62 NSCLC) was 18.2 µM and the TGI (SK-MEL-5 melanoma) was 13 µM. For the same compound, the TGI (SK-MEL-28 melanoma) was 27.6 µM, the TGI (IGROV1 ovarian) was 13.6 µM and the TGI (KM12 colon) was over 39.7 µM. The TGI (NCI-H226 lung) was 13.6 µM, the TGI (MDA-MB-435) was 4.4 µM and the TGI (MDA-N) was 3.59 µM. It also gave a TGI (EKVX NSCLC) of 9.52 µM, a TGI (NCI-H23 lung) of over 46 µM and a TGI (TK-10 renal) of 25.3 µM. For the same compound, the TGI (T-47D breast) was over 48.5 µM, the TGI (PC-3 prostate) was 12.1 µM and the TGI (A549 NSCLC) was over 40.7 µM. For the same compound, the TGI (COLO 205 colon) was 12.1 µM, the TGI (SF-268 CNS) was 10.5 µM and the TGI (A498 renal) was 34 µM. For the same compound, the TGI (SW-620 colon) was 22.6 µM, the TGI (SNB-75 CNS) was 14.7 µM and the TGI (UO-31 renal) was over 50.6 µM. It also gave a TGI (HS 578T breast) of 28.1 µM, a TGI (OVCAR-5 ovarian) of 16.1 µM and a TGI (NCI-H522 lung) of 4.74 µM. The TGI (NCI-H460 lung) was over 37.6 µM, the TGI (NCI/ADR-RES ovarian) was over 26.3 µM and the TGI (CCRF-CEM leukemia) was 3.74 µM. For the same compound, the TGI (OVCAR-8 ovarian) was 32 µM, the TGI (MALME-3M melanoma) was 10.8 µM and the TGI (UACC-257 melanoma) was 18.3 µM. The TGI (SK-OV-3 ovarian) was 14.8 µM, the TGI (MDA-MB-231 breast) was 27.4 µM and the TGI (HOP-92 NSCLC) was 74.5 µM. For the same compound, the TGI (LOX IMVI melanoma) was over 41.9 µM, the TGI (CAKI-1 renal) was 24.9 µM and the TGI (SNB-19 CNS) was 38.5 µM. For the same compound, the TGI (U251 CNS) was over 100 µM, the TGI (RPMI-8226 leukemia) was over 38.1 µM and the TGI (K-562 leukemia) was over 51.5 µM. For the same compound, the TGI (ACHN renal) was 23.1 µM, the TGI (RXF 393 renal) was 2.67 µM and the TGI (SF-295 CNS) was 9.2 µM. The TGI (OVCAR-3 ovarian) was 7.04 µM, the TGI (OVCAR-4 ovarian) was 23.9 µM and the TGI (SR leukemia) was 22.6 µM. For the same compound, the TGI (MCF7 breast) was over 40.6 µM, the TGI (DU-145 prostate) was 22.6 µM and the TGI (MOLT-4 leukemia) was 40.2 µM. It also gave a TGI (HCT-116 colon) of 9.44 µM, a TGI (UACC-62 melanoma) of 18.5 µM and a TGI (HCT-15 colon) of over 36.7 µM. For the same compound, the TGI (HCC-2998 colon) was over 39 µM, the TGI (SF-539 CNS) was 11.8 µM and the TGI (BT-549 breast) was 13 µM. It also gave a TGI (HT29 colon) of 40.3 µM, a TGI (SK-MEL-2 melanoma) of 26.5 µM and a TGI (SN12C renal) of 28.6 µM. It also gave a TGI (M14 melanoma) of 19.6 µM.
`COC(=O)Cc1c(-c2[nH]c3ccccc3c2CC(=O)OC)[nH]c2ccccc12` gave a TGI (786-0 renal) of over 100 µM, a TGI (HOP-62 NSCLC) of over 100 µM and a TGI (SK-MEL-5 melanoma) of over 100 µM. The TGI (SK-MEL-28 melanoma) was over 100 µM, the TGI (IGROV1 ovarian) was over 100 µM and the TGI (KM12 colon) was over 100 µM. It also gave a TGI (NCI-H226 lung) of over 100 µM, a TGI (MDA-MB-435) of over 100 µM and a TGI (MDA-N) of over 100 µM. The TGI (EKVX NSCLC) was over 100 µM, the TGI (NCI-H23 lung) was over 100 µM and the TGI (TK-10 renal) was over 100 µM. It also gave a TGI (T-47D breast) of over 100 µM, a TGI (PC-3 prostate) of over 100 µM and a TGI (A549 NSCLC) of over 100 µM. The TGI (COLO 205 colon) was over 100 µM, the TGI (SF-268 CNS) was over 100 µM and the TGI (A498 renal) was over 100 µM. It also gave a TGI (SW-620 colon) of over 100 µM, a TGI (SNB-75 CNS) of over 100 µM and a TGI (UO-31 renal) of over 100 µM. The TGI (HS 578T breast) was over 100 µM, the TGI (OVCAR-5 ovarian) was over 100 µM and the TGI (NCI-H522 lung) was over 100 µM. It also gave a TGI (NCI-H460 lung) of over 100 µM, a TGI (NCI/ADR-RES ovarian) of over 100 µM and a TGI (CCRF-CEM leukemia) of over 100 µM. It also gave a TGI (OVCAR-8 ovarian) of over 100 µM, a TGI (MALME-3M melanoma) of over 100 µM and a TGI (UACC-257 melanoma) of over 100 µM. The TGI (SK-OV-3 ovarian) was over 100 µM, the TGI (MDA-MB-231 breast) was over 100 µM and the TGI (HOP-92 NSCLC) was over 100 µM. The TGI (LOX IMVI melanoma) was over 100 µM, the TGI (CAKI-1 renal) was over 100 µM and the TGI (SNB-19 CNS) was over 100 µM. For the same compound, the TGI (U251 CNS) was over 100 µM, the TGI (RPMI-8226 leukemia) was over 100 µM and the TGI (K-562 leukemia) was over 100 µM. It also gave a TGI (ACHN renal) of over 100 µM, a TGI (RXF 393 renal) of over 100 µM and a TGI (SF-295 CNS) of over 100 µM. It also gave a TGI (OVCAR-3 ovarian) of over 41.2 µM, a TGI (OVCAR-4 ovarian) of over 100 µM and a TGI (SR leukemia) of over 100 µM. For the same compound, the TGI (MCF7 breast) was over 100 µM, the TGI (DU-145 prostate) was over 100 µM and the TGI (MOLT-4 leukemia) was over 100 µM. It also gave a TGI (HCT-116 colon) of over 100 µM, a TGI (UACC-62 melanoma) of over 100 µM and a TGI (HCT-15 colon) of over 100 µM. It also gave a TGI (HCC-2998 colon) of over 100 µM, a TGI (SF-539 CNS) of over 100 µM and a TGI (BT-549 breast) of over 100 µM. It also gave a TGI (HT29 colon) of over 100 µM, a TGI (SK-MEL-2 melanoma) of over 100 µM and a TGI (SN12C renal) of over 100 µM. It also gave a TGI (M14 melanoma) of over 100 µM.
